Consider one compound from US8293764B2, “Compositions and methods for disruption of BRCA2-Rad51 interaction” (The Regents of the University of California, priority 2004, dated 2012).

Peptide text beside a SMILES is read from it. * marks the point of attachment. Cbz = O=C(OCc1ccccc1)*

This assay relates to Rad51 in MCF-7 cells. Kind of assay: Rad51 stability assay with cyclohexamide. Type of assay: cell-based. To be noted: 1 μM MG132, IBR2 treated and control cells. The source says:
To examine the impact of IBR2 on Rad51 protein expression, IBR2 treated MCF-7 cells was examined by straight western blot probed with a panel of antibodies against BRCA2, Rad51, Rad50, p84 and Rb. […] Consistent with our FACS analysis (FIG. 4A), the hypo-phosphorylated form of Rb, a marker for G1 phase, was the major form observed in the later time points, further confirming that IBR2 arrests cells at G1 phase (FIG. 4A). It has been reported that BRCA2 level is cell cycle dependent, which expresses low in G1 phase and peaks at G1/S boundary. Therefore the decreased level of BRCA2 in IBR2 treated cells may be due to G1 phase arrest. Different from BRCA2 protein, Rad51 protein is expressed constant throughout the cell cycle in MCF-7 cells (data not shown). Therefore, loss of Rad51 protein may be the direct effect of IBR2 treatment instead of the consequence of G1 arrest. […]
Western blot analysis: Cells were treated with […] or 50 μg/ml cycloheximide (CHX) or 1 μM MG132 and harvested at different time points for western blot analysis. […] The intensity of bands was quantified by densitometry using Labworks 4.5 software. The relative value of the band intensity was calculated with respect to that of untreated sample after normalization with the p84 signal.

On to `CC(C)C[C@@H](C=O)NC(=O)[C@H](CC(C)C)NC(=O)[C@H](CC(C)C)NC(=O)OCc1ccccc1` [MG132, reference compound] (Cbz-Leu-Leu-Leu-aldehyde), for which the “half-life of Rad51 with addition of MG132” value is reported as “prolonged”.
